Drawing on ChEMBL document CHEMBL2202954, “The effect of PLC-γ2 inhibitors on the growth of human tumour cells” (2012), this text covers Activity for eleven compounds.

Type in all cases: functional
Experiment [1] relates to KM12. As to the kind of experiment: Cytotoxicity against human KM12 cells assessed as cellular growth at 10 uM by SRB assay. In general terms: The SRB assay estimates cell density from bound dye.
For experiment [2], the system named is U-251. The experiment in a line: Cytotoxicity against human U251 cells assessed as cellular growth at 10 uM by SRB assay.
In experiment [3] the test system is NCI-H460. As to the kind of experiment: Cytotoxicity against human NCI-H460 cells assessed as cellular growth at 10 uM by SRB assay.
For experiment [4], the system named is SNB-75. As to the kind of experiment: Cytotoxicity against human SNB75 cells assessed as cellular growth at 10 uM by SRB assay.
Experiment [5] has as its system SNB-19. The experiment in a line: Cytotoxicity against human SNB19 cells assessed as cellular growth at 10 uM by SRB assay.
Experiment [6] relates to OVCAR-8. As to the kind of experiment: Cytotoxicity against human OVCAR8 cells assessed as cellular growth at 10 uM by SRB assay.
For experiment [7], the system named is MDA-MB-468. As to the kind of experiment: Cytotoxicity against human MDA-MB-468 cells assessed as cellular growth at 10 uM by SRB assay.
For experiment [8], the system named is A498. As to the kind of experiment: Cytotoxicity against human A498 cells assessed as cellular growth at 10 uM by SRB assay.
Experiment [9] concerns SK-MEL-2. As to the kind of experiment: Cytotoxicity against human SK-MEL-2 cells assessed as cellular growth at 10 uM by SRB assay.
Experiment [10] has as its system IGROV-1. As to the kind of experiment: Cytotoxicity against human IGROV1 cells assessed as cellular growth at 10 uM by SRB assay.
The test system of experiment [11] is CCRF-CEM. The experiment in a line: Cytotoxicity against human CCRF-CEM cells assessed as cellular growth at 10 uM by SRB assay.
Experiment [12] concerns EKVX. The experiment in a line: Cytotoxicity against human EKVX cells assessed as cellular growth at 10 uM by SRB assay.
The subject of experiment [13] is SK-OV-3. The experiment in a line: Cytotoxicity against human SKOV3 cells assessed as cellular growth at 10 uM by SRB assay.
The subject of experiment [14] is COLO 205. As to the kind of experiment: Cytotoxicity against human COLO205 cells assessed as cellular growth at 10 uM by SRB assay.
In experiment [15] the test system is UO-31. As to the kind of experiment: Cytotoxicity against human UO31 cells assessed as cellular growth at 10 uM by SRB assay.
Experiment [16] deals with A549. As to the kind of experiment: Cytotoxicity against human A549 cells assessed as cellular growth at 10 uM by SRB assay.
Experiment [17] in a line: Cytotoxicity against human NCI-ADR-RES cells assessed as cellular growth at 10 uM by SRB assay.
Experiment [18] has as its system TK-10. The experiment in a line: Cytotoxicity against human TK10 cells assessed as cellular growth at 10 uM by SRB assay.
In experiment [19] the test system is RXF 393. As to the kind of experiment: Cytotoxicity against human RXF393 cells assessed as cellular growth at 10 uM by SRB assay.
The test system of experiment [20] is UACC-257. The experiment in a line: Cytotoxicity against human UACC257 cells assessed as cellular growth at 10 uM by SRB assay.

For `Oc1ccccc1-c1nc(-c2cccs2)no1`, the Activity came out at 100.01% in experiment [1]; 89.74% in experiment [2]; 95.65% in [3]; 90.2% in experiment [4]; 102.55% in experiment [5]; 102.43% in [6]. Moreover, the Activity in experiment [7] amounted to 44.64%; in experiment [8], 105.68%; in [9], 107.16%; in experiment [10], 86.9%; in experiment [11], 91.77%; in experiment [12], 89.29%. Besides, the Activity was determined as 99.86% in experiment [13]; 111.09% in experiment [14]; 71.94% in experiment [15]; 99.05% in [16]; 106.13% in experiment [17]; 89.67% in experiment [18]. The Activity worked out at 117.42% in experiment [19] and 96.64% in experiment [20].
In the case of `O=C(NCCc1ccccc1)c1[nH]c2ccccc2c1Cl`, the Activity in [1] worked out at 72.97%; in [2] it was 92.92%; in experiment [3] it was 89.75%; in experiment [4] it was 79.43%; in [5] it was 99.04%; in experiment [6], 84.42%. For the same compound, the Activity turned out to be 64.9% in experiment [7]; 81.46% in experiment [8]; 129.02% in [9]; 82.65% in [10]; 86.13% in experiment [11]; 57.12% in experiment [12]. For the same compound, the Activity was 91.3% in [13]; 99.13% in experiment [14]; 57.64% in experiment [15]; 96.24% in [16]; 87.28% in [17]; 154.81% in [18]. Further, the Activity in experiment [19] was 103.44%; in experiment [20], 96.54%.
`Cc1c(OCC(=O)c2ccccc2)ccc2c1oc(=O)c1ccccc12`: the Activity in experiment [1] turned out to be 97.66%; in experiment [2] it was 98.92%; in [3], 100.87%; in experiment [4], 122.93%; in experiment [5] it was 101.61%; in [6] it was 99.11%. The Activity in [7] was 62.01%; in experiment [8], 91.47%; in experiment [9], 125.14%; in [10], 115.73%; in [11], 95.27%; in experiment [12] it was 99.55%. The Activity in experiment [13] came to 101.55%; in [14], 117.2%; in experiment [15] it was 107.51%; in experiment [16], 93.47%; in experiment [17], 100.54%; in [18] it was 110%. For the same compound, the Activity in experiment [19] came out at 116.6%; in experiment [20] it was 111.79%.
Consider `Cc1ccc(NC(=O)c2sc3nc4c(cc3c2N)C(=O)CCC4)cc1Cl`, for which the Activity in [1] is 115.57%; in [2], 97.87%; in experiment [3], 106.36%; in experiment [4], 110.07%; in [5] it was 114.43%; in [6] it was 103.45%. The Activity in experiment [7] turned out to be 104.98%; in experiment [8], 97.9%; in experiment [9], 112.11%; in [10] it was 105.54%; in [11], 104.3%; in experiment [12], 86.19%. Moreover, the Activity in [13] is on record as 113.94%; in experiment [14], 127.7%; in [15] it was 110.67%; in experiment [16], 100.84%; in [17], 103.82%; in experiment [18], 96.53%. Further, the Activity in [19] worked out at 117.2%; in [20] it was 95.07%.
Turning to `CC1(C)CCc2cc(-c3ccn(S(=O)(=O)c4cccc(C(F)(F)F)c4)n3)ccc2O1`, the Activity in experiment [1] was found to be 98.53%; in experiment [2], 81.96%; in [3] it was 90%; in [4], 102.76%; in experiment [5], 103.83%; in [6], 93.92%. In addition, the Activity came to 67.07% in [7]; 94.88% in [8]; 107.75% in [9]; 109.7% in experiment [10]; 74.11% in [11]; 70.44% in [12]. In addition, the Activity is on record as 96.16% in experiment [13]; 123.8% in [14]; 97.36% in experiment [15]; 80.37% in experiment [16]; 88.98% in [17]; 82.31% in experiment [18]. The Activity in [19] came out at 97.2%; in experiment [20] it was 81.69%.
On to `Cc1ccc(NC(=O)c2sc3nc(-c4cccs4)ccc3c2N)cc1C`, for which the Activity in experiment [1] is given as 106.51%; in [2], 101.86%; in experiment [3], 98.65%; in experiment [4] it was 111.99%; in experiment [5], 111.2%; in experiment [6], 102.12%. Moreover, the Activity in [7] came out at 44.79%; in [8], 88.5%; in [9] it was 82.1%; in experiment [10] it was 117.67%; in experiment [11] it was 97.34%; in [12] it was 103.49%. Further, the Activity in experiment [13] is reported as 112.05%; in experiment [14], 112.33%; in experiment [15], 126.96%; in [16], 96.75%; in [17] it was 102.93%; in experiment [18], 87%. In addition, the Activity worked out at 123.31% in experiment [19] and 106.65% in experiment [20].
Regarding `O=c1/c(=C/c2ccc(Cl)cc2Cl)sc2nc(-c3ccccc3)nn12`, the Activity was determined as 101.32% in experiment [1]; 103.07% in experiment [2]; 106.83% in experiment [3]; 116.38% in experiment [4]; 102.51% in experiment [5]; 110.37% in [6]. The Activity in experiment [7] worked out at 112.09%; in [8], 112.37%; in [9], 107.26%; in experiment [10], 130.42%; in [11], 95.93%; in [12], 111.1%. Further, the Activity in experiment [13] was 109.75%; in experiment [14] it was 132.3%; in experiment [15], 114.46%; in experiment [16] it was 107.72%; in experiment [17], 112.24%; in experiment [18], 106%. The Activity in experiment [19] is 121.72%; in experiment [20] it was 112.2%.
Consider `CC1(C)CC(=O)c2cc3c(N)c(C(=O)Nc4ccc(F)cc4)sc3nc2C1`, for which the Activity was 115.29% in [1]; 101.59% in experiment [2]; 104.48% in experiment [3]; 114.82% in experiment [4]; 131.09% in experiment [5]; 108.67% in experiment [6]. The Activity in [7] came out at 112.64%; in experiment [8], 87.2%; in [9], 122.76%; in experiment [10], 119.45%; in [11] it was 107.91%; in experiment [12] it was 100.32%. The Activity in [13] was 109.93%; in [14], 133.12%; in experiment [15] it was 119.15%; in experiment [16] it was 105.88%; in experiment [17] it was 104.25%; in experiment [18] it was 105.13%. For the same compound, the Activity came out at 108.89% in experiment [19] and 107.39% in [20].
In the case of `CC1(C)CC(=O)c2cc3c(N)c(C(=O)NCc4ccccc4)sc3nc2C1`, the Activity turned out to be 105.75% in [1]; 99.82% in experiment [2]; 101.02% in [3]; 98.33% in [4]; 108.68% in experiment [5]; 95.57% in experiment [6]. The Activity in experiment [7] stood at 93.1%; in experiment [8], 89.05%; in experiment [9] it was 114.95%; in [10] it was 107.02%; in experiment [11], 99.55%; in experiment [12], 108.91%. Further, the Activity in experiment [13] is 111.17%; in experiment [14], 128.9%; in experiment [15] it was 110.68%; in experiment [16] it was 99.09%; in experiment [17], 93.37%; in experiment [18] it was 106.71%. Moreover, the Activity in experiment [19] is given as 93.07%; in experiment [20] it was 104.6%.
As for `O=C(Nc1ccc(S(=O)(=O)Nc2nccs2)cc1)c1cccs1`, the Activity in experiment [1] is 114.86%; in [2], 101.85%; in experiment [3], 123.68%; in experiment [4], 87.94%; in experiment [5] it was 106.66%; in experiment [6] it was 106.2%. Also, the Activity is listed as 102.57% in [7]; 114.15% in [8]; 113.23% in [9]; 120.24% in experiment [10]; 89.52% in experiment [11]; 97.85% in experiment [12]. In addition, the Activity in experiment [13] was 117.21%; in experiment [14] it was 135.23%; in experiment [15], 95.49%; in experiment [16] it was 96.04%; in experiment [17], 120.26%; in experiment [18] it was 104.94%. Moreover, the Activity in experiment [19] is reported as 110.47%; in [20], 102.54%.
Turning to `CC1(C)CCc2cc(-c3ccn(S(=O)(=O)c4ccccc4Cl)n3)ccc2O1`, the Activity in experiment [1] was 62.1%; in [2], 67.67%; in [3] it was 79.3%; in experiment [4], 99.11%; in experiment [5], 88.07%; in [6], 89.74%. Moreover, the Activity in [7] is recorded as 63.67%; in experiment [8] it was 71.86%; in experiment [9], 102.25%; in experiment [10] it was 113.61%; in experiment [11] it was 59.83%; in experiment [12] it was 67.03%. The Activity in experiment [13] amounted to 91.9%; in experiment [14] it was 88.88%; in experiment [15], 90.06%; in experiment [16], 80.53%; in [17], 78.37%; in [18], 74.57%. Further, the results for the Activity in [19] and in experiment [20] were 93.11% and 99.38%, respectively.
